{"source": "patent US8093388B2", "about": "“3-aza spiro[5,5]undec-8-ene derivatives and their use as monoamine neurotransmitter re-uptake inhibitors” (Neurosearch A/S, priority 2005, dated 2012)", "key": {"[1]": {"target": "T1, reuptake of dopamine (DA) in synaptosomes (Rattus norvegicus, UniProt P23977)", "T1 construct": "in synaptosomes as described in WO 97/16451; from tissue", "T1 sequence (P23977 whole entry)": "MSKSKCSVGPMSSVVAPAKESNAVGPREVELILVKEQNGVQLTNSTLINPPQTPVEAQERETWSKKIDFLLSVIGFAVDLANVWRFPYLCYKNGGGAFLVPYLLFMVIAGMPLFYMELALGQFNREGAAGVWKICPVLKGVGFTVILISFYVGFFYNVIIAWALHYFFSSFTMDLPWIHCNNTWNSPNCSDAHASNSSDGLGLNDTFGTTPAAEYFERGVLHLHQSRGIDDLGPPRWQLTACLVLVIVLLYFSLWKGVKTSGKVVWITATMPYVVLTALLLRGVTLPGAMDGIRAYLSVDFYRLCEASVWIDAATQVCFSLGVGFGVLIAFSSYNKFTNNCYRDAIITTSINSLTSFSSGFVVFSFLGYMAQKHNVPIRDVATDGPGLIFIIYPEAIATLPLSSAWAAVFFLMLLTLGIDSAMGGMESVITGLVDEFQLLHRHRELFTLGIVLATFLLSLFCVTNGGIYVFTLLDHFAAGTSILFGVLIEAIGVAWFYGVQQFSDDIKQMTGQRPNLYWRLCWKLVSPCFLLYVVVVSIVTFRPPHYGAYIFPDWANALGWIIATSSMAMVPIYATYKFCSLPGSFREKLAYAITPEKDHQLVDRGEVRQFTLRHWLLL", "experiment": "Inhibition of dopamine (DA) reuptake in synaptosomes", "assay_type": "biochemical", "settings": "3H-DA, read-out: DA-uptake IC50", "text": "(§1) Compounds of the invention may be tested for their ability to inhibit reuptake of the monoamines dopamine, noradrenaline and serotonin in synaptosomes e.g. such as described in WO 97/30997. Based on the balanced activity observed in these tests the compound of the invention is considered useful for the treatment, prevention or alleviation of a disease or a disorder or a condition of a mammal, including a human, which disease, disorder or condition is responsive to inhibition of monoamine neurotransmitter re-uptake in the central nervous system.\n(§2) A number of compounds were tested for their ability to inhibit the reuptake of the monoamine neurotransmitters dopamine (DA) noradrenaline (NA) and serotonine (5-HT) in synaptosomes as described in WO 97/16451.\n(§3) The test values are given as IC50 (the concentration (μM) of the test substance which inhibits the specific binding of ^3H-DA, ^3H-NA, or ^3H-5-HT by 50%)."}, "[2]": {"target": "T2, reuptake of noradrenaline (NA) in synaptosomes (Rattus norvegicus, UniProt Q9WTR4)", "T2 construct": "in synaptosomes as described in WO 97/16451; from tissue", "T2 sequence (Q9WTR4 1-597)": "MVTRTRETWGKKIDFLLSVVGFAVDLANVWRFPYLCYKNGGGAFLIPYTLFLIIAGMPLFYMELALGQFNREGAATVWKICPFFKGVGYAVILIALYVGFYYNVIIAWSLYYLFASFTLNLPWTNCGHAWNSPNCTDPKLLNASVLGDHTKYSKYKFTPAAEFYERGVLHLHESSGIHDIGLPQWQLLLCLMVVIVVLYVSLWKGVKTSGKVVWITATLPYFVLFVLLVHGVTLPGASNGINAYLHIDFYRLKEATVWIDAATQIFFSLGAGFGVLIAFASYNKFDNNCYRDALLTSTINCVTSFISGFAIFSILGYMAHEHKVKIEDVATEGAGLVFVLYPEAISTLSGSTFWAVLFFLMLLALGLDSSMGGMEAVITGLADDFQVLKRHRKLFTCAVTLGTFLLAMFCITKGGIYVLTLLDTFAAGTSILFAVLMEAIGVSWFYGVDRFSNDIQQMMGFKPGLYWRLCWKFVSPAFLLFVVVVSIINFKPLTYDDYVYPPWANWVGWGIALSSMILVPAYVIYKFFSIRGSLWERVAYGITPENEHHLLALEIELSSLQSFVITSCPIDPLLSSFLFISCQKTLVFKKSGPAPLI", "experiment": "Inhibition of noradrenaline (NA) reuptake in synaptosomes", "assay_type": "biochemical", "settings": "3H-NA, read-out: NA-uptake IC50", "text": "as §1, §2, §3"}, "[3]": {"target": "T3, reuptake of serotonine (5-HT) in synaptosomes (Rattus norvegicus, UniProt P31652)", "T3 construct": "in synaptosomes as described in WO 97/16451; from tissue", "T3 sequence (P31652 whole entry)": "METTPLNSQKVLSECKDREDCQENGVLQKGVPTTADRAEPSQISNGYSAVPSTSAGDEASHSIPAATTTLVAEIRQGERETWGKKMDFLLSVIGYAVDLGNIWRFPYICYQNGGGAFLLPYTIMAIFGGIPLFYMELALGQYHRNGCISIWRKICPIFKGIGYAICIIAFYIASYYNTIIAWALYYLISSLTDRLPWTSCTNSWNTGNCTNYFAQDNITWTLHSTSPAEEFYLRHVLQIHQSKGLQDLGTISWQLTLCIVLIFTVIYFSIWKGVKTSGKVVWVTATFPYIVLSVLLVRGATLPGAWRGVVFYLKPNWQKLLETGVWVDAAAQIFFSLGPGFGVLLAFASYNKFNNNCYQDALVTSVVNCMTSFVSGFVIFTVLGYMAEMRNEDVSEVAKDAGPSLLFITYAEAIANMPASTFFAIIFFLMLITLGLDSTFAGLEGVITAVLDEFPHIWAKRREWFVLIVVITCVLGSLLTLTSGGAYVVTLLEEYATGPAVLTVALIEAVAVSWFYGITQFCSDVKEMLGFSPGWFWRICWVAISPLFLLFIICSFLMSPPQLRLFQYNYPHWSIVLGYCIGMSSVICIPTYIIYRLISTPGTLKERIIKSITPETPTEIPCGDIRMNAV", "experiment": "Inhibition of serotonine (5-HT) reuptake in synaptosomes", "assay_type": "biochemical", "text": "as §1, §2, §3"}, "[4]": {"settings": "synaptosomes, 3H-5-HT, read-out: 5-HT-uptake IC50"}}, "note": "Like-named read-outs stand apart in the source and are kept apart here."}
{"smiles": "COc1ccc2cc(C3=CCC4(CC3)CCN(C)CC4)ccc2c1", "note": "[9-(6-Methoxy-naphthalen-2-yl)-3-methyl-3-aza-spiro[5.5]undec-8-ene]", "values": [{"measurement": "melting point", "result": "146.9 to 149.5", "unit": "°C"}]}
{"smiles": "COc1ccc2cc(C3=CCC4(CCNCC4)CC3)ccc2c1", "note": "[4th compound of method A, 9-(6-Methoxy-naphthalen-2-yl)-3-aza-spiro[5.5]undec-8-ene]", "values": [{"measurement": "IC50", "setting": "[1]", "result": 0.038, "unit": "µM"}, {"measurement": "IC50", "setting": "[2]", "result": 0.12, "unit": "µM"}, {"measurement": "IC50", "setting": "[3]; [4]", "result": 0.016, "unit": "µM"}, {"measurement": "melting point", "result": "146.9 to 149.5", "unit": "°C"}]}
{"smiles": "Clc1ccc(C2=CCC3(CCNCC3)CC2)cc1", "values": [{"measurement": "melting point", "result": "104.2 to 107.1", "unit": "°C"}]}
{"smiles": "CN1CCC2(CC=C(c3cc4ccccc4s3)CC2)CC1", "note": "[9-Benzo[b]thiophen-2-yl-3-methyl-3-aza-spiro[5.5]undec-8-ene]", "values": [{"measurement": "melting point", "result": "89.7 to 91.2", "unit": "°C"}]}
{"smiles": "C1=C(c2cc3ccccc3o2)CCC2(C1)CCNCC2.O=C(O)C(F)(F)F", "values": [{"measurement": "melting point", "result": "215.7 to 217.3", "unit": "°C"}]}
{"smiles": "C1=C(c2cc3ccccc3s2)CCC2(C1)CCNCC2", "note": "[2nd compound of method A, 9-Benzo[b]thiophen-2-yl-3-aza-spiro[5.5]undec-8-ene]", "values": [{"measurement": "IC50", "setting": "[1]", "result": 1.2, "unit": "µM"}, {"measurement": "IC50", "setting": "[2]", "result": 0.58, "unit": "µM"}, {"measurement": "IC50", "setting": "[3]; [4]", "result": 0.02, "unit": "µM"}, {"measurement": "melting point", "result": "107.3 to 110.2", "unit": "°C"}]}
{"smiles": "CN1CCC2(CC=C(c3cc4ccccc4o3)CC2)CC1.O=C(O)/C=C/C(=O)O", "values": [{"measurement": "melting point", "result": "224.2 to 226.1", "unit": "°C"}]}
{"smiles": "C1=C(c2ccc3ccccc3c2)CCC2(C1)CCNCC2", "note": "[9-Naphthalen-2-yl-3-aza-spiro[5.5]undec-8-ene]", "values": [{"measurement": "melting point", "result": "137.1 to 141.3", "unit": "°C"}]}
{"smiles": "Brc1cccc(C2=CCC3(CCNCC3)CC2)n1", "note": "[2nd last compound of method A, 9-(6-Bromo-pyridin-2-yl)-3-aza-spiro[5.5]undec-8-ene]", "values": [{"measurement": "IC50", "setting": "[1]", "result": 2, "unit": "µM"}, {"measurement": "IC50", "setting": "[2]", "result": 1, "unit": "µM"}, {"measurement": "IC50", "setting": "[3]", "result": 0.018, "unit": "µM"}, {"measurement": "melting point", "result": "161.3 to 162.8", "unit": "°C"}]}
{"smiles": "COc1cc(C2=CCC3(CCNCC3)CC2)ccc1Cl", "note": "[9-(4-Chloro-3-methoxy-phenyl)-3-aza-spiro[5.5]undec-8-ene]", "values": [{"measurement": "melting point", "result": "182 to 185", "unit": "°C"}]}
